Assay results taken from patent US20230202989A1, “COMPOUNDS” (JANSSEN PHARMACEUTICA NV, priority 2020, published 2023).
Like-named read-outs stand apart in the source and are kept apart here.

Assays:
IL-1β = experiment: PBMC assay: inhibition of IL-1β release after LPS stimulation (MSD); type: cell-based; conditions: human PBMCs, read-out: IL1β IC50
Method: Peripheral venous blood s collected from health individuals and human peripheral blood mononuclear cells (PBMCs) ere isolated from blood by Ficoll Histopaque (Sigma-Aldrich, A0561) density gradient centrifugation. After isolation, PBMCs were stored in liquid nitrogen for later use. Upon thawing, PBMC cell viability was determined in growth medium (RPMI media supplemented with 10% fetal bovine serum, 1% Pen-Strep and 1% L-glutamine). […] PBMCs were added at a density of 7.5×10^4 cells per well and incubated for 30 min in a 5% CO2 incubator at 37° C. LPS stimulation was performed by addition of 100 ng/ml LPS (final concentration, Invivogen, tlrl-smlps) for 6 hrs followed by collection of cellular supernatant and the analysis of IL-1β (μM) and TNF cytokines levels (μM) via MSD technology according to manufacturers' guidelines (MSD, K151A0H).
(§1) The IC50 values (for IL-1β) and EC50 values (TNF) were obtained on compounds of the invention/examples, and are depicted in the following table: […]

TNF = experiment: PBMC assay: TNF cytokine levels after LPS stimulation (MSD); type: cell-based; conditions: human PBMCs, 100 ng/ml LPS for 6 hrs
Method: Peripheral venous blood s collected from health individuals and human peripheral blood mononuclear cells (PBMCs) ere isolated from blood by Ficoll Histopaque (Sigma-Aldrich, A0561) density gradient centrifugation. After isolation, PBMCs were stored in liquid nitrogen for later use. Upon thawing, PBMC cell viability was determined in growth medium (RPMI media supplemented with 10% fetal bovine serum, 1% Pen-Strep and 1% L-glutamine). Compounds were spotted in a 1:3 serial dilution in DMSO and diluted to the final concentration in 30 μl medium in 96 well plates (Falcon, 353072). PBMCs were added at a density of 7.5×10^4 cells per well and incubated for 30 min in a 5% CO2 incubator at 37° C. LPS stimulation was performed by addition of 100 ng/ml LPS (final concentration, Invivogen, tlrl-smlps) for 6 hrs followed by collection of cellular supernatant and the analysis of IL-1β (μM) and TNF cytokines levels (μM) via MSD technology according to manufacturers' guidelines (MSD, K151A0H).
as §1

[1] = Homo sapiens, PBMC, 6 h, 100 ng/ml LPS for 6 hrs, MSD, 96 well plates
[2] = Homo sapiens, PBMC, LPS stimulation, 384 well plate

CC(C)c1nn(CC(=O)N[C@@H]2C[C@H](O)CN(C)C2)c(=O)c2ccc(C(F)(F)F)cc12 (mixture of isomers) [Final Cpd X133]
IC50 (IL-1β; 100 ng/ml LPS for 6 hrs, MSD, 96 well plates): 3.38 µM
EC50 (TNF): > 20 µM

CC(C)c1nn(CC(=O)N[C@H]2COC[C@H](O)C2)c(=O)c2ccc(C(F)(F)F)cc12 (mixture of isomers) [Final Cpd X148]
IC50 (IL-1β; [1]): 6.32 µM
EC50 (TNF; Homo sapiens, PBMC, 6 h): > 20 µM

CC(C)c1nn(CC(=O)N[C@@H]2COC[C@H](O)C2)c(=O)c2ccc(C(F)(F)F)cc12 (mixture of isomers) [Final Cpd X157]
IC50 (IL-1β; [1]): 9.81 µM
EC50 (TNF; Homo sapiens, PBMC, 6 h): > 20 µM

CC[C@@H](C)c1nn(CC(=O)Nc2ccc3nncn3c2)c(=O)c2ccc(C(F)(F)F)cc12 (single isomer, unassigned) [Final Cpd X12]
IC50 (IL-1β; [1]): 0.113 µM
EC50 (TNF; Homo sapiens, PBMC, 6 h): > 20 µM

Cc1nnc2n1C[C@@H](NC(=O)Cn1nc(C(C)C)c3cc(C(F)(F)F)ccc3c1=O)CC2 (single isomer, unassigned) [Final Cpd X41]
IC50 (IL-1β; [1]): 0.351 µM
EC50 (TNF; Homo sapiens, PBMC, 6 h): > 20 µM

CC[C@H](C)c1nn(CC(=O)Nc2ccc3nncn3c2)c(=O)c2ccc(C(F)(F)F)cc12 (single isomer, unassigned) [Final Cpd X43]
IC50 (IL-1β; [1]): 0.374 µM
EC50 (TNF; Homo sapiens, PBMC, 6 h): > 20 µM

CC(C)c1nn(CC(=O)N[C@H]2CC[C@H]2O)c(=O)c2ccc(C(F)(F)F)cc12 (single isomer, unassigned) [Final Cpd X124]
IC50 (IL-1β; [1]): 2.76 µM
EC50 (TNF; Homo sapiens, PBMC, 6 h): > 20 µM

CCN1CCC[C@H](NC(=O)Cn2nc(C(C)C)c3cc(C(F)(F)F)ccc3c2=O)C1=O (single isomer, unassigned) [Final Cpd X129]
IC50 (IL-1β; [1]): 3.07 µM
EC50 (TNF; Homo sapiens, PBMC, 6 h): > 20 µM

CC(C)c1nn(CC(=O)N[C@@H]2C[C@H](O)CN(C)C2)c(=O)c2ccc(C(F)(F)F)cc12 (single isomer, unassigned) [Final Cpd X130]
IC50 (IL-1β; [1]): 3.08 µM
EC50 (TNF; Homo sapiens, PBMC, 6 h): > 20 µM

CC(=O)N1C[C@H](O)C[C@@H](NC(=O)Cn2nc(C(C)C)c3cc(C(F)(F)F)ccc3c2=O)C1 (single isomer, unassigned) [Final Cpd X138]
IC50 (IL-1β; [1]): 4.02 µM
EC50 (TNF; Homo sapiens, PBMC, 6 h): > 20 µM

CCN1CC[C@@H](NC(=O)Cn2nc(C(C)C)c3cc(C(F)(F)F)ccc3c2=O)[C@@H](O)C1 (single isomer, unassigned) [Final Cpd X139]
IC50 (IL-1β; [1]): 4.28 µM
EC50 (TNF; Homo sapiens, PBMC, 6 h): > 20 µM

CCN1CC[C@@H](NC(=O)Cn2nc(C(C)C)c3cc(C(F)(F)F)ccc3c2=O)[C@H](O)C1 (single isomer, unassigned) [Final Cpd X140]
IC50 (IL-1β; [1]): 4.61 µM
EC50 (TNF; Homo sapiens, PBMC, 6 h): > 20 µM

CCN1CC[C@H](NC(=O)Cn2nc(C(C)C)c3cc(C(F)(F)F)ccc3c2=O)[C@H](O)C1 (single isomer, unassigned) [Final Cpd X147]
IC50 (IL-1β; [1]): 5.94 µM
EC50 (TNF; Homo sapiens, PBMC, 6 h): > 20 µM

CC(C)c1nn(CC(=O)N[C@@H]2CC[C@H]2O)c(=O)c2ccc(C(F)(F)F)cc12 (single isomer, unassigned) [Final Cpd X149]
IC50 (IL-1β; [1]): 6.49 µM
EC50 (TNF; Homo sapiens, PBMC, 6 h): > 20 µM

CC(=O)N1C[C@H](O)C[C@H](NC(=O)Cn2nc(C(C)C)c3cc(C(F)(F)F)ccc3c2=O)C1 (single isomer, unassigned) [Final Cpd X150]
IC50 (IL-1β; [1]): 7.37 µM
EC50 (TNF; Homo sapiens, PBMC, 6 h): > 20 µM

CCN1C[C@@H](F)C[C@H](NC(=O)Cn2nc(C(C)C)c3cc(C(F)(F)F)ccc3c2=O)C1 (single isomer, unassigned) [Final Cpd X153]
IC50 (IL-1β; [1]): 7.63 µM
EC50 (TNF; Homo sapiens, PBMC, 6 h): > 20 µM

CC(=O)N1C[C@@H](O)C[C@H](NC(=O)Cn2nc(C(C)C)c3cc(C(F)(F)F)ccc3c2=O)C1 (single isomer, unassigned) [Final Cpd X159]
IC50 (IL-1β; [1]): 10.3 µM
EC50 (TNF; Homo sapiens, PBMC, 6 h): > 20 µM

Cc1nnc2n1C[C@H](NC(=O)Cn1nc(C(C)C)c3cc(C(F)(F)F)ccc3c1=O)CC2 (single isomer, unassigned) [Final Cpd X163]
IC50 (IL-1β; [1]): 15.1 µM
EC50 (TNF; Homo sapiens, PBMC, 6 h): > 20 µM

CC(=O)N1C[C@@H](O)C[C@@H](NC(=O)Cn2nc(C(C)C)c3cc(C(F)(F)F)ccc3c2=O)C1 (single isomer, unassigned) [Final Cpd X164]
IC50 (IL-1β; [1]): 15.3 µM
EC50 (TNF; Homo sapiens, PBMC, 6 h): > 20 µM

CCN1CCC[C@@H](NC(=O)Cn2nc(C(C)C)c3cc(C(F)(F)F)ccc3c2=O)C1=O (single isomer, unassigned) [Final Cpd X166]
IC50 (IL-1β; [1]): 17.5 µM
EC50 (TNF; Homo sapiens, PBMC, 6 h): > 20 µM

CCN1CC[C@H](NC(=O)Cn2nc(C(C)C)c3cc(C(F)(F)F)ccc3c2=O)[C@@H](O)C1 (single isomer, unassigned) [Final Cpd X172]
IC50 (IL-1β; [1]): > 20 µM
EC50 (TNF; Homo sapiens, PBMC, 6 h): > 20 µM

CCN1CCC[C@H](NC(=O)Cn2nc(C(C)C)c3cc(Br)ccc3c2=O)C1 (stereo in doubt) [X-1032]
IC50 (IL-1β; [1]): 0.031 µM
EC50 (TNF; Homo sapiens, PBMC, 6 h): > 20 µM

CCN1CC[C@H](O)[C@H](NC(=O)Cn2nc(C(C)C)c3cc(Br)ccc3c2=O)C1 (stereo in doubt) [X-1083]
IC50 (IL-1β; [1]): 0.018 µM
EC50 (TNF; Homo sapiens, PBMC, 6 h): > 20 µM

CCc1nn(CC(=O)Nc2ccc3nncn3c2)c(=O)c2ccc(Br)cc12 [Final Cpd 1]
IC50 (IL-1β; [1]): 0.115 µM
EC50 (TNF; Homo sapiens, PBMC, 6 h): > 20 µM

CCc1nn(CC(=O)Nc2ccncn2)c(=O)c2ccc(Br)cc12 [Final Cpd 2, 2-(6-bromo-4-ethyl-1-oxo-phthalazin-2-yl)-N-pyrimidin-4-yl-acetamide]
IC50 (IL-1β; [1]): 0.19 µM
EC50 (TNF; Homo sapiens, PBMC, 6 h): > 10 µM

CCc1nn(CC(=O)Nc2ccc3nncn3c2)c(=O)c2ccc(C3CC3)cc12 [Final Cpd 3]
IC50 (IL-1β; [1]): 0.124 µM
EC50 (TNF; Homo sapiens, PBMC, 6 h): 14.9 µM

CCc1nn(CC(=O)Nc2ccncn2)c(=O)c2ccc(C)cc12 [Final Cpd 4]
IC50 (IL-1β; [1]): 2.91 µM
EC50 (TNF; Homo sapiens, PBMC, 6 h): > 10 µM

CCc1nn(CC(=O)Nc2ccncn2)c(=O)c2ccc(C3CC3)cc12 [Final Cpd 5]
IC50 (IL-1β; [1]): 0.42 µM
EC50 (TNF; Homo sapiens, PBMC, 6 h): > 10 µM

CCc1nn(CC(=O)Nc2ccncn2)c(=O)c2ccc(C(C)C)cc12 [Final Cpd 6]
IC50 (IL-1β; [1]): 0.45 µM
EC50 (TNF; Homo sapiens, PBMC, 6 h): > 10 µM

CCc1ccc2c(=O)n(CC(=O)Nc3ccncn3)nc(CC)c2c1 [Final Cpd 7]
IC50 (IL-1β; [2]): 0.7 µM
EC50 (TNF; Homo sapiens, PBMC, 6 h): > 10 µM

CC(C)c1nn(CC(=O)Nc2ccc3nncn3c2)c(=O)c2ccc(C(F)(F)F)cc12 [Final Cpd 8]
IC50 (IL-1β; [1]): 0.076 µM
EC50 (TNF; Homo sapiens, PBMC, 6 h): 13.7 µM

CCc1nn(CC(=O)Nc2ccncn2)c(=O)c2ccc(C(F)(F)F)cc12 [Final Cpd 9]
IC50 (IL-1β; [1]): 0.58 µM
EC50 (TNF; Homo sapiens, PBMC, 6 h): > 10 µM

COc1ccc2c(=O)n(CC(=O)Nc3ccncn3)nc(C(C)C)c2c1 [Final Cpd 10, 2-(4-isopropyl-6-methoxy-1-oxo-phthalazin-2-yl)-N-pyrimidin-4-yl-acetamide]
IC50 (IL-1β; [1]): 2.32 µM
EC50 (TNF; Homo sapiens, PBMC, 6 h): > 10 µM

CCc1nn(CC(=O)Nc2ccncn2)c(=O)c2ccc(OC)cc12 [Final Cpd 11]
IC50 (IL-1β; [1]): 1.24 µM
EC50 (TNF; Homo sapiens, PBMC, 6 h): > 10 µM

CCc1nn(CC(=O)Nc2ccncn2)c(=O)c2ccccc12 [Final Cpd 12]
IC50 (IL-1β; [1]): > 20 µM
EC50 (TNF; Homo sapiens, PBMC, 6 h): > 20 µM

CCc1nn(CC(=O)Nc2cccnc2)c(=O)c2ccccc12 [Final Cpd 13]
IC50 (IL-1β; [1]): > 20 µM
EC50 (TNF; Homo sapiens, PBMC, 6 h): > 20 µM

CCc1nn(CC(=O)NC2CC2)c(=O)c2ccccc12 [Final Cpd 14]
IC50 (IL-1β; [1]): > 20 µM
EC50 (TNF; Homo sapiens, PBMC, 6 h): > 20 µM

CC(C)c1nn(CC(=O)Nc2ccncn2)c(=O)c2ccc(C(F)(F)F)cc12 [Final Cpd 15]
IC50 (IL-1β; [1]): 0.176 µM
EC50 (TNF; Homo sapiens, PBMC, 6 h): > 20 µM

CCc1nn(CC(=O)Nc2ccncn2)c(=O)c2ccc(C(F)F)cc12 [Final Cpd 16]
IC50 (IL-1β; [2]): 0.92 µM
EC50 (TNF; Homo sapiens, PBMC, 6 h): > 10 µM

CC(C)c1nn(CC(=O)Nc2ncc3nc[nH]c3n2)c(=O)c2ccc(C(F)(F)F)cc12 [Final Cpd X1, 2-(4-isopropyl-1-oxo-6-(trifluoromethyl)phthalazin-2(1H)-yl)-N-(9H-purin-2-yl)acetamide]
EC50 (TNF; Homo sapiens, PBMC, 6 h): > 20 µM
